US10836725B2, “Modulators of the integrated stress pathway” (Calico Life Sciences LLC, priority 2016, dated 2020)
Each block holds one molecule with its values, some of them ahead of it.

System: ATF4 luciferase reporter
Experiment: ATF4-Luc assay in HEK293T cells carrying the ATF4 luciferase reporter (in vitro model of VWMD)
Assay type: cell-based, human
Details: Homo sapiens, HEK-293T, 1 μg/mL tunicamycin, 7 hours, luminescence (One Glo)
Outline: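 Reporter cells were stably generated by retroviral transduction and puromycin selection, then seeded at 30,000 cells/well. Next day, cells received 1 μg/mL tunicamycin with 200 nM test compound for 7 h, and luciferase luminescence was read with a one-step reagent. Values reported as EC50.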

- EC50: > 2 µM
Compound: O=C(COc1ccc(Cl)c(F)c1)NC12CC(C(=O)NCc3ccncc3)(C1)C2 [Compound 233, 3-[2-(4-chloro-3-fluorophenoxy)acetamido]-N-[(pyridin-4-yl]methyl]bicyclo[1.1.1]pentane-1-carboxamide]

- EC50: > 2 µM
Compound: O=C(COc1ccc(Cl)c(F)c1)NC12CC(C(=O)NCc3cccc(F)c3)(C1)C2 [Compound 237, 3-[2-(4-chloro-3-fluorophenoxy)acetamido]-N-[(3-fluorophenyl)methyl]bicyclo[1.1.1]pentane-1-carboxamide]

- EC50: > 2 µM
Compound: CCOc1ccc(CNC(=O)C23CC(NC(=O)COc4ccc(Cl)c(F)c4)(C2)C3)cc1 [Compound 240, 3-[2-(4-chloro-3-fluorophenoxy)acetamido]-N-[(4-ethoxyphenyl)methyl]bicyclo[1.1.1]pentane-1-carboxamide]

- EC50: > 2 µM
Compound: O=C(COc1ccc(Cl)c(F)c1)NC12CC(C(=O)NCc3ccc(Cl)c(Cl)c3)(C1)C2 [Compound 241, 3-[2-(4-chloro-3-fluorophenoxy)acetamido]-N-[(3,4-dichlorophenyl]methyl]bicyclo[1.1.1]pentane-1-carboxamide]

- EC50: > 2 µM
Compound: O=C(COc1ccc(Cl)c(F)c1)NC12CC(C(=O)NCc3ccccc3OC(F)F)(C1)C2 [Compound 243, 3-[2-(4-chloro-3-fluorophenoxy)acetamido]-N-{[2-(difluoromethoxy)phenyl]methyl}bicyclo[1.1.1]pentane-1-carboxamide]

- EC50: > 2 µM
Compound: O=C(COc1ccc(Cl)c(F)c1)NC12CC(C(=O)NCc3ccc(F)cc3)(C1)C2 [Compound 245, 3-[2-(4-chloro-3-fluorophenoxy)acetamido]-N-[(4-fluorophenyl)methyl]bicyclo[1.1.1]pentane-1-carboxamide]

- EC50: > 2 µM
Compound: COc1ccc(CNC(=O)C23CC(NC(=O)COc4ccc(Cl)c(F)c4)(C2)C3)cc1Cl [Compound 249, 3-[2-(4-chloro-3-fluorophenoxy)acetamido]-N-[(3-chloro-4-methoxyphenyl)methyl]bicyclo[1.1.1]pentane-1-carboxamide]

- EC50: > 2 µM
Compound: O=C(COc1ccc(Cl)c(F)c1)NC12CC(C(=O)NCc3cccc(OC(F)F)c3)(C1)C2 [Compound 250, 3-[2-(4-chloro-3-fluorophenoxy)acetamido]-N-{[3-(difluoromethoxy)phenyl]methyl}bicyclo[1.1.1]pentane-1-carboxamide]

Second part, the molecule before the results:

Compound: CCc1csc(CCNC(=O)C23CC(NC(=O)COc4ccc(Cl)c(F)c4)(C2)C3)n1 [Compound 230, 3-[2-(4-chloro-3-fluorophenoxy)acetamido]-N-[2-(4-ethyl-1,3-thiazol-2-yl)ethyl]bicyclo[1.1.1]pentane-1-carboxamide]
- EC50: > 2 µM

Compound: O=C(COc1ccc(Cl)c(F)c1)NC12CC(C(=O)NCc3cc(F)cc(C(F)(F)F)c3)(C1)C2 [Compound 231, 3-[2-(4-chloro-3-fluorophenoxy)acetamido]-N-{[3-fluoro-5-(trifluoromethyl)phenyl]methyl}bicyclo[1.1.1]pentane-1-carboxamide]
- EC50: > 2 µM

Compound: COc1cccc(CNC(=O)C23CC(NC(=O)COc4ccc(Cl)c(F)c4)(C2)C3)n1 [Compound 232, 3-[2-(4-chloro-3-fluorophenoxy)acetamido]-N-[(6-methoxypyridin-2-yl]methyl]bicyclo[1.1.1]pentane-1-carboxamide]
- EC50: > 2 µM

Compound: O=C(COc1ccc(Cl)c(F)c1)NC12CC(C(=O)NCCc3ccncc3)(C1)C2 [Compound 234, 3-[2-(4-chloro-3-fluorophenoxy)acetamido]-N-[2-(pyridin-4-yl)ethyl]bicyclo[1.1.1]pentane-1-carboxamide]
- EC50: > 2 µM

Compound: O=C(COc1ccc(Cl)c(F)c1)NC12CC(C(=O)NCc3ccon3)(C1)C2 [Compound 235, 3-[2-(4-chloro-3-fluorophenoxy)acetamido]-N-[(1,2-oxazol-3-yl]methyl]bicyclo[1.1.1]pentane-1-carboxamide]
- EC50: > 2 µM

Compound: COc1ccc(OC)c(CNC(=O)C23CC(NC(=O)COc4ccc(Cl)c(F)c4)(C2)C3)c1 [Compound 236, 3-[2-(4-chloro-3-fluorophenoxy)acetamido]-N-[(2,5-dimethoxyphenyl]methyl]bicyclo[1.1.1]pentane-1-carboxamide]
- EC50: > 2 µM

Compound: CCCCc1ccc(CNC(=O)C23CC(NC(=O)COc4ccc(Cl)c(F)c4)(C2)C3)cc1 [Compound 238, N-[(4-butylphenyl)methyl]-3-[2-(4-chloro-3-fluorophenoxy)acetamido]bicyclo[1.1.1]pentane-1-carboxamide]
- EC50: > 2 µM

Compound: O=C(COc1ccc(Cl)c(F)c1)NC12CC(C(=O)NCCc3ccc(F)cc3)(C1)C2 [Compound 239, 3-[2-(4-chloro-3-fluorophenoxy)acetamido]-N-[2-(4-fluorophenyl)ethyl]bicyclo[1.1.1]pentane-1-carboxamide]
- EC50: > 2 µM

Compound: O=C(COc1ccc(Cl)c(F)c1)NC12CC(C(=O)NCCc3cccnc3)(C1)C2 [Compound 242, 3-[2-(4-chloro-3-fluorophenoxy)acetamido]-N-[2-(pyridin-3-yl)ethyl]bicyclo[1.1.1]pentane-1-carboxamide]
- EC50: > 2 µM

Compound: Cc1occc1CNC(=O)C12CC(NC(=O)COc3ccc(Cl)c(F)c3)(C1)C2 [Compound 244, 3-[2-(4-chloro-3-fluorophenoxy)acetamido]-N-[(2-methylfuran-3-yl)methyl]bicyclo[1.1.1]pentane-1-carboxamide]
- EC50: > 2 µM

Compound: O=C(COc1ccc(Cl)c(F)c1)NC12CC(C(=O)NCc3ccc(SC(F)(F)F)cc3)(C1)C2 [Compound 246, 3-[2-(4-chloro-3-fluorophenoxy)acetamido]-N-({4-[(trifluoromethyl)sulfanyl]phenyl}methyl)bicyclo[1.1.1]pentane-1-carboxamide]
- EC50: > 2 µM

Compound: CCCc1cc(CNC(=O)C23CC(NC(=O)COc4ccc(Cl)c(F)c4)(C2)C3)on1 [Compound 247, 3-[2-(4-chloro-3-fluorophenoxy)acetamido]-N-[(3-propyl-1,2-oxazol-5-yl)methyl]bicyclo[1.1.1]pentane-1-carboxamide]
- EC50: > 2 µM

Compound: COc1ccc(CCNC(=O)C23CC(NC(=O)COc4ccc(Cl)c(F)c4)(C2)C3)cc1Cl [Compound 248, 3-[2-(4-chloro-3-fluorophenoxy)acetamido]-N-[2-(3-chloro-4-methoxyphenyl)ethyl]bicyclo[1.1.1]pentane-1-carboxamide]
- EC50: > 2 µM

Compound: Cc1ccc(CNC(=O)C23CC(NC(=O)COc4ccc(Cl)c(F)c4)(C2)C3)c(C)n1 [Compound 251, 3-[2-(4-chloro-3-fluorophenoxy)acetamido]-N-[(2,6-dimethylpyridin-3-yl)methyl]bicyclo[1.1.1]pentane-1-carboxamide]
- EC50: > 2 µM

Compound: O=C(COc1ccc(Cl)c(F)c1)NC12CC(C(=O)NCCn3cccn3)(C1)C2 [Compound 252, 3-[2-(4-chloro-3-fluorophenoxy)acetamido]-N-[2-(1H-pyrazol-1-yl)ethyl]bicyclo[1.1.1]pentane-1-carboxamide]
- EC50: > 2 µM
